Data from US7402696B2, “Benzene compounds” (Ajinomoto Co., Inc., priority 2004, dated 2008).
Read-outs that look alike come from different tables or passages of the source.

Biological target: T1, ACC (acetyl CoA carboxylase) purified from liver of male SD rat (Rattus norvegicus, UniProt P11497)
T1 construct: applied to a monomeric avidin sepharose column, and washed with buffer B. The ACC was eluted with buffer B containing 2 mM d-biotin; from tissue; host or cells: liver of male SD rat
Test: Measurement of ACC inhibition activity ([14C]-NaHCO3 incorporation)
Assay type: biochemical
Conditions: ACC inhibition activity rate at 1 μM, read-out: ACC Inhibition (%)
Protocol: A male SD rat was deprived of food for two days and then fed a high-sucrose diet (component) for two days. While anesthetized with ether, the descending vena cava was cut upon, the animal was bled, and the liver was rapidly recovered. In an ice-cooled buffer solution A (225 mM mannitol, 75 mM sucrose, 10 mM Tris-HCl (pH 7.5), 0.05 mM EDTA, 5 mM potassium citrate, 2.5 mM MgCl2, 10 mg/L pepstatin A, 10 mg/L leupeptin, 1 mM PMSF), the liver was homogenized with a polytone homogenizer. A quantity of buffer A nine times the weight of the liver was added, the mixture was centrifuged for 10 minutes at 1,000 g, the supernatant was recovered, and the supernatant was centrifuged for another 10 minutes at 17,000 g.
Ammonium sulfate was added to 35 percent saturation to the obtained supernatant. The mixture was stirred for 45 minutes and then centrifuged for 10 minutes at 17,000 g. Buffer solution B (100 mM Tris-HCl (pH 7.5), 500 mM NaCl, 1 mM EDTA, 0.1 mM DTT, 10 percent glycerol, 10 mg/L pepstatin A, 10 mg/L leupeptin, 0.5 mM PMSF) was added to the obtained precipitate and dissolved. The solution was then centrifuged for 20 minutes at 40,000 g. The supernatant was dialyzed overnight against buffer C (100 mM Tris-HCl (pH 7.5), 500 mM NaCl, 1 mM EDTA, 0.1 mM DTT, 5 percent glycerol).
The dialyzed supernatant was passed through a […], applied to a monomeric avidin sepharose column, and washed with buffer B. The ACC was eluted with buffer B containing 2 mM d-biotin.
(2 Measurement of ACC Inhibition Activity)
The compounds synthesized in the above-described embodiments were dissolved in DMSO and charged to glass vials. 250 μL of ACC-containing reaction solution (40 mM Tris-HCl (pH 7.5), 40 mM MgCl2, 40 mM sodium citrate, and 2 mM DTT) was added. The mixture was heated for 30 minutes at 37° C. in a thermostatic chamber and then cooled with ice. To reaction solution 1 was added 250 μL of reaction solution 2 containing [14C]—NaHCO3 (40 mM Tris-HCl (pH 7.5), 2 mM DTT, 8 mM ATP, 0.5 mM acetyl CoA) and the mixture was heated for 10 minutes at 37° C. 100 μL of 1N HCl was added to stop the reaction. Water in the reaction solution was removed with a centrifugal evaporator, a scintillator was added, the solid component was dissolved, and the 14C radioactivity was measured with a liquid scintillation counter. The ACC inhibition activity of each compound was calculated from the following equation and converted to the ACC inhibition activity rate (%) at 1 μM.
ACC inhibition rate (%)=(1−(a−c)/(b−c))×100 a. Radioactivity when test drug added b: Radioactivity when test drug not added c: Blank* *Reaction solution 1 to which 100 μL of 1N HCl was added before mixing reaction solution 1 and reaction solution 2

[1] = Table 4-A, further compounds of Modes 2 and 3
[2] = Table 4-IV, Mode 4 benzenediamine compounds (numbers = x-IV)
[3] = Table 3-I, Mode 1 quinoline compounds (numbers = x-I)
[4] = Table 2-III, Mode 3 acetylene/oxadiazole/thiazole compounds (numbers = x-III)

SMILES	inhibition at 1 µM [2] [%]	further results
COC(=O)c1ccc(S(=O)(=O)NC(=O)c2cccc(-c3nc(-c4ccc(-c5csc(-c6ccccc6)n5)cc4)no3)c2)cc1 [Compound 140-III]		inhibition at 1 µM [1]: 92%
CC(C)CCN(C)c1ccc(-c2noc(-c3cccc(C(=O)NS(=O)(=O)c4cn(C)cn4)c3)n2)cc1N(C)Cc1ccc(OCCO)cc1 [Compound 142-IV]	93	
CC(C)(C)c1ccc(C(=O)NS(=O)(=O)c2ccccc2NC(=O)c2ccc3nc(-c4cc(C(F)(F)F)cc(C(F)(F)F)c4)ccc3c2)cc1 [compound 83]		inhibition at 1 µM [3]: 98%
CC(C)CCN(C)c1ccc(-c2noc(-c3cccc(C(=O)NS(=O)(=O)c4ccccc4)c3)n2)cc1NCC1CCCCC1 [compound 47]	100	
CC(C)CCN(C)c1ccc(-c2noc(-c3cccc(C(=O)NS(=O)(=O)c4ccccc4)c3)n2)cc1NC(=O)C1CCCCC1 [compound 41]	85	
CN(c1ccc(C(=O)NC(CC(=O)NS(=O)(=O)c2ccccc2)C2CCCCC2)cc1NCCc1ccccc1)C1CC1 (stereo not shown) [Compound 157-IV]	69	
CC(C)CCN(C)c1ccc(-c2noc(-c3cccc(C(=O)NS(=O)(=O)c4ccccc4)c3)n2)cc1NCc1nccn1C [compound 60]	61	
CCN(CC)c1ccc(-c2csc(-c3ccc(-c4csc(-c5cccc(S(=O)(=O)NC(=O)c6ccncc6)c5)n4)cc3)n2)cc1 [Compound 147-III]		inhibition at 1 µM [1]: 65%
CC(C)CCN(C)c1ccc(-c2noc(-c3cccc(C(=O)NS(=O)(=O)c4ccccc4)c3)n2)cc1NC(C)C [compound 48]	87	
O=C(O)CCC(NC(=O)OCc1ccccc1)C(=O)Nc1ccc(-c2csc(-c3ccccc3)n2)cc1 (stereo not shown) [compound 104]		inhibition at 1 µM [4]: 66%
CCCCCC(=O)NS(=O)(=O)c1ccccc1NC(=O)c1ccc2nc(-c3cccc(SC(F)(F)F)c3)ccc2c1 [compound 109]		inhibition at 1 µM [3]: 61%
CC(C)c1ccc(S(=O)(=O)NC(=O)c2ccc(-c3csc(-c4ccc(C#Cc5cccc(C(F)(F)F)c5)cc4)n3)cc2)cc1 [compound 105]		inhibition at 1 µM [4]: 99%
CCCCS(=O)(=O)NC(=O)c1ccccc1NC(=O)c1ccc2nc(-c3cc(C(F)(F)F)cc(C(F)(F)F)c3)ccc2c1 [compound 4]		inhibition at 1 µM [3]: 78%
CC(C)CCn1c(-c2ccccc2)nc2cc(-c3nc(-c4cccc(C(=O)NS(=O)(=O)c5ccccc5)c4)no3)ccc21 [Compound 9-II]		inhibition at 1 µM [1]: 72%
O=C1C(c2ccccc2)=C(c2ccccc2)C(=O)N1c1cccc(C#Cc2cccc(C(F)(F)F)c2)c1 [compound 74]		inhibition at 1 µM [4]: 66%
CC(C)CCN(C)c1ccc(-c2noc(-c3cccc(C(=O)NS(=O)(=O)c4ccccc4)c3)n2)cc1NC(=O)c1cccc(C(F)(F)F)c1 [compound 39]	99	
CCCCS(=O)(=O)NC(=O)[C@@H]1C[C@@H]2C[C@@H](C2(C)C)[C@]1(C)NC(=O)c1ccc2nc(-c3cc(C(F)(F)F)cc(C(F)(F)F)c3)ccc2c1 [compound 58]		inhibition at 1 µM [3]: 46%
O=C(O)C1C=CC=CC1c1nc(-c2ccc(-c3csc(-c4ccc(C(F)(F)F)cc4)n3)cc2)no1 (stereo not shown) [compound 49]		inhibition at 1 µM [4]: 62%

SMILES	inhibition at 1 µM [2] [%]	further results
O=C(NS(=O)(=O)c1ccc(-c2nc(-c3ccc(-c4csc(-c5ccccc5)n4)cc3)no2)cc1)c1ccccc1 [Compound 135-III]		inhibition at 1 µM [1]: 98%
CC(C)CCN(C)c1ccc(-c2noc(-c3cccc(C(=O)NS(=O)(=O)c4ccccc4)c3)n2)cc1NC(=O)OCc1ccccc1 [compound 44]	100	
O=C(Nc1cccc(C(=O)NS(=O)(=O)c2ccccc2)c1)c1ccc(NCCN2CCCC2)c([N+](=O)[O-])c1 [compound 67]	58	
CCCCCC(=O)NS(=O)(=O)c1ccccc1NC(=O)c1ccc(Nc2c(F)c(F)c(C(F)(F)F)c(F)c2F)c([N+](=O)[O-])c1 [compound 8]	50	
O=C(O)c1cccc(-c2nc(-c3ccc(C#Cc4cccc(C(F)(F)F)c4)cc3)no2)c1 [compound 27]		inhibition at 1 µM [4]: 56%
O=C(/C=C/c1ccccc1)NS(=O)(=O)c1cccc(-c2nc(-c3ccc(-c4csc(-c5ccccc5)n4)cc3)no2)c1 [Compound 142-III]		inhibition at 1 µM [1]: 100%
CCCCCC(=O)NS(=O)(=O)c1ccccc1NC(=O)c1ccc2nc(-c3cccc(C(F)(F)F)c3F)ccc2c1 [compound 110]		inhibition at 1 µM [3]: 50%
Cc1ccccc1S(=O)(=O)NC(=O)[C@@H]1CCCC[C@H]1NC(=O)c1ccc(N(C)CCC(C)C)c(NCc2ccccc2)c1 [Compound 145-IV]	57	
CC(C)c1ccc(S(=O)(=O)NC(=O)c2cccc(-c3nc(-c4ccc(-c5csc(-c6ccc(C(F)(F)F)cc6)n5)cc4)no3)c2)cc1 [compound 106]		inhibition at 1 µM [4]: 97%
CCC(CC)C(=O)Nc1cc(-c2noc(-c3cccc(C(=O)NS(=O)(=O)c4ccccc4)c3)n2)ccc1N(C)CCC(C)C [compound 42]	76	
COc1cccc(OC)c1C(=O)NS(=O)(=O)c1cccc(-c2nc(-c3ccc(-c4csc(-c5ccccc5)n4)cc3)no2)c1 [Compound 146-III]		inhibition at 1 µM [1]: 79%
O=C1c2cccc3cccc(c23)C(=O)N1c1cccc(C#Cc2cccc(C(F)(F)F)c2)c1 [compound 70]		inhibition at 1 µM [4]: 62%
O=C(O)c1ccc(C(=O)Nc2ccc(C#Cc3cccc(C(F)(F)F)c3)cc2)c(C(=O)O)c1 [compound 13]		inhibition at 1 µM [4]: 51%
O=S(=O)(Nc1ccc(-c2csc(-c3ccc(C(F)(F)F)cc3)n2)cc1)c1cccc(S(=O)(=O)Nc2ccc(-c3csc(-c4ccc(C(F)(F)F)cc4)n3)cc2)c1 [compound 55]		inhibition at 1 µM [4]: 73%
CCCCCC(=O)NS(=O)(=O)c1ccccc1NC(=O)c1ccc(Nc2ccc(C(F)(F)F)cc2)c(NC(=O)c2cc(C(F)(F)F)cc(C(F)(F)F)c2)c1 [compound 16]	86	
CN(c1ccc(C(=O)NC(CC(=O)NS(=O)(=O)c2ccccc2)C2CCCCC2)cc1NCCOCc1ccccc1)C1CC1 (stereo not shown) [Compound 158-IV]	65	
CCCCCC(=O)NS(=O)(=O)c1ccccc1NC(=O)c1ccc(Nc2ccc(C(F)(F)F)cc2)c(NC(=O)c2cccc(C(F)(F)F)c2)c1 [compound 27]	91	

Second part, led by results:

inhibition at 1 µM [2] [%]	SMILES	further results
100	CC(C)CCN(C)c1ccc(-c2noc(-c3cccc(C(=O)NS(=O)(=O)c4ccccc4)c3)n2)cc1NCc1cccc(F)c1 [compound 101]	
75	CC(C)CCN(C)c1ccc(C(=O)NC(CC(=O)NS(=O)(=O)c2ccccc2)c2ccccc2)cc1NCc1ccccc1 (stereo not shown) [compound 112]	
100	Cc1ccccc1S(=O)(=O)NC(=O)c1cccc(-c2nc(-c3ccc(N(C)CCC(C)C)c(N4COc5ccccc5C4)c3)no2)c1 [compound 128]	
96	CC(C)CCN(C)c1ccc(C(=O)NC(CC(=O)NS(=O)(=O)c2ccccc2)C2CCCCC2)cc1N(C)CC1CCCCC1 (stereo not shown) [compound 94]	
70	CC(C)CCN(C)c1ccc(C(=O)NC(CC(=O)NS(=O)(=O)c2ccccc2)C2CCCCC2)cc1NCc1cccs1 (stereo not shown) [compound 91]	
100	CSc1ccccc1CNc1cc(-c2noc(-c3cccc(C(=O)NS(=O)(=O)c4ccccc4)c3)n2)ccc1N(C)CCC(C)C [compound 115]	
95	CC(C)CCN(C)c1ccc(-c2noc(-c3cccc(C(=O)NS(=O)(=O)c4ccccc4)c3)n2)cc1NCc1cccc(O)c1 [compound 96]	
56	Cc1ccccc1S(=O)(=O)NC(=O)CC(NC(=O)c1ccc(N(C)CCC(C)C)c(NCc2ccccc2)c1)C1CCCCC1 (stereo not shown) [compound 82]	
100	CC(C)CCN(C)c1ccc(-c2noc(-c3cccc(C(=O)NS(=O)(=O)c4ccccc4)c3)n2)cc1NCc1ccc(O)cc1 [compound 95]	
67	Cc1ccccc1S(=O)(=O)NC(=O)CC(NC(=O)c1ccc(N(C)CCC(C)C)c(NCc2ccccc2O)c1)C1CCCCC1 (stereo not shown) [compound 122]	
84	CC(C)CCN(C)c1ccc(C(=O)NC(CC(=O)NS(=O)(=O)c2ccccc2)C2CCCCC2)cc1N(C)Cc1ccccc1 (stereo not shown) [compound 93]	
